# According to patent US12590079B2, “Compounds and uses thereof” (FOGHORN THERAPEUTICS INC., priority 2019, dated 2026):
# Assays:
# Type in all cases: cell-based
# [1] = system: non-synovial control cancer cell lines (RD, HCT116, and Calu6); test: Crystal violet cell growth, non-synovial control lines, Example 3; details: treated daily, stained by day 14
# Procedure: (§1) Procedure: Cells were seeded into 6-well or 12-well plates and were treated daily with a BRD9 degrader (Compound 1), a bromo-domain BRD9 binder (Compound 2), E3 ligase binder (lenalidomide), DMSO, or staurosporin (positive control for cell killing), at indicated concentrations. The number of cells was optimized for each cell line. Growth media was refreshed every 5 days. By day 14, medium was removed, cells were washed with PBS, and stained using 500 μL of 0.005% (w/v) crystal violet solution in 25% (v/v) methanol for at least 1 hour at room temperature. Subsequently plates were scanned on an Odyssey CLx Imaging system.
# [2] = system: SYO1 cells; test: Cell cycle analysis (Click-iT Plus EdU flow cytometry); details: 200 nM or 1 μM, 8 or 13 days, compared to DMSO and lenalidomide
# Procedure: (§2) Procedure: SYO1 cells were treated for 8 or 13 days with DMSO, a BRD9 degrader (Compound 1) at 200 nM or 1 μM, or an E3 ligase binder (lenalidomide) at 200 nM. Compounds were refreshed every 5 days. Cell cycle analysis was performed using the Click-iT™ Plus EdU Flow Cytometry Assay (Invitrogen). The apoptosis assay was performed using the Annexin V-FITC Apoptosis Detection Kit (Sigma A9210). Assays were performed according to the manufacturer's protocol.
# [3] = system: synovial sarcoma cell lines (SYO1, HS-SY-II, and ASKA); test: Crystal violet cell growth, synovial sarcoma cell lines, Example 3; details: for inhibition of the growth of the cells: SYO1, HS-SY-II, ASKA, treated daily, stained by day 14
# Procedure: as §1
# [4] = system: non-synovial control cancer cell lines (293T, A549, G401); test: Cell growth (confluency, crystal violet, colony imaging), non-synovial control lines, Example 2; details: 1 μM or indicated concentrations
# Procedure: (§3) Cells were treated with DMSO or the BRD9 degrader, Compound 1, at indicated concentrations, and proliferation was monitored from day 7 to day 14 by measuring confluency overtime using an IncuCyte live cell analysis system (FIG. 5). Growth medium and compounds were refreshed every 3-4 days.
# (§4) Cells were seeded into 12-well plates and treated with DMSO, 1 μM BRD9 inhibitor, Compound 2 (also known as BI-7273, see Martin et al, J Med Chem. 59(10):4462-4475 (2016); see structure of compound 2 below), or 1 μM BRD9 degrader, Compound 1.
# (§5) The number of cells was optimized for each cell line. Growth medium and compounds were refreshed every 3-5 days. SYO1, Yamato, A549, 293T and HS-SY-II cells were fixed and stained at day 11. ASKA cells were fixed and stained at day 23. Staining was done by incubation with crystal violet solution (0.5 g Crystal Violet, 27 ml 37% Formaldehyde, 100 mL 10×PBS, 10 mL Methanol, 863 dH20 to 1 L) for 30 min followed by 3× washes with water and drying the plates for at least 24 h at room temperature. Subsequently plates were scanned on an Odyssey CLx Imaging system (FIG. 6).
# (§6) Cells were seeded into 96-well ultra-low cluster plate (Costar, #7007) in 200 μL complete media and treated at day 2 with DMSO, Staurosporin, or BRD9 degrader, Compound 1, at indicated doses (FIG. 3C). Media and compounds were changed every 5 d and cell colonies were imaged at day 14.
# [5] = system: synovial sarcoma cell lines (SYO1, Yamato, HS-SY-II, and ASKA); test: Cell growth (confluency, crystal violet, colony imaging), synovial sarcoma cell lines, Example 2; details: 1 μM or indicated concentrations, day 11 to 23
# Procedure: as §3, §4, §5, §6
# [6] = system: SYO1 cells; test: Apoptosis assay (Annexin V-FITC); details: 200 nM or 1 μM, 8 days, compared to DMSO controls
# Procedure: as §2
# [7] = target: T1, Nanoluciferase-BRD9 fusion protein (3×FLAG-NLuc-BRD9) (Homo sapiens, UniProt Q9H8M2); test: SYO1 BRD9 NanoLuc degradation assay; details: SYO-1 cells expressing 3×FLAG-NLuc-BRD9, 6 hours, top dose 1 μM; read-out: SYO1 BRD9-NanoLuc degradation IC50
# T1 construct: expressed in transfected cells
# T1 sequence (Q9H8M2 1-597): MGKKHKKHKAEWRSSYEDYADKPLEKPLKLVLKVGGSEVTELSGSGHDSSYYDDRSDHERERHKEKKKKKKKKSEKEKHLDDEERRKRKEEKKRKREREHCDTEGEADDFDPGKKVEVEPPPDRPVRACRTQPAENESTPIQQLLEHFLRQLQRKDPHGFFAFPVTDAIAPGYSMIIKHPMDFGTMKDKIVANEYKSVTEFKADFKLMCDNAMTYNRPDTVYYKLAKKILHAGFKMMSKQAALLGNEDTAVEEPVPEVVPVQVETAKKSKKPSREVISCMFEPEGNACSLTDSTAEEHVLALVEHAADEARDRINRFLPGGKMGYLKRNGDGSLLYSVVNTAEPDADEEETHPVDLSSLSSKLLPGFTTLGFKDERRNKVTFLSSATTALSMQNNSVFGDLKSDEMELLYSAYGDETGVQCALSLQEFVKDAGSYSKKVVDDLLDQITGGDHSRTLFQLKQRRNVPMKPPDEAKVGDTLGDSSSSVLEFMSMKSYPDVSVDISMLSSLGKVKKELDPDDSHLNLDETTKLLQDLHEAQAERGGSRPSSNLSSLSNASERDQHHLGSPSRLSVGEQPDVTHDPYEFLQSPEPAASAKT
# Procedure: Procedure: A stable SYO-1 cell line expressing 3×FLAG-NLuc-BRD9 was generated. On day 0 cells were seeded in 30 μL media into each well of 384-well cell culture plates. The seeding density was 8000 cells/well. On day 1, cells were treated with 30 nL DMSO or 30 nL of 3-fold serially DMSO-diluted compounds (10 points in duplicates with 1 μM as final top dose). Subsequently plates were incubated for 6 hours in a standard tissue culture incubator and equilibrated at room temperature for 15 minutes. Nanoluciferase activity was measured by adding 15 μL of freshly prepared Nano-Glo Luciferase Assay Reagent (Promega N1130), shaking the plates for 10 minutes and reading the bioluminescence using an EnVision reader.
# Results: The Inhibition % was calculated using the following formula: % Inhibition=100×(LumHC−LumSample)/(LumHC−LumLC). DMSO treated cells are employed as High Control (HC) and 1 μM of a known BRD9 degrader standard treated cells are employed as Low Control (LC).
Structure (SMILES),inhibition of the growth of the cells [1],numbers of cells in the S-phase of the cell cycle [2],inhibition of the growth of the cells [3],"growth inhibition compared with the other treatments ([3]; all synovial cell lines, vs Compound 2 and lenalidomide)",inhibition of the growth of the cells [4],inhibition of the growth of the cells [5],numbers of early- and late-apoptotic cells [6],DC50 [7]
"COc1cc(-c2cn(C)c(=O)c3cnccc23)cc(OC)c1CN(C)CC(=O)NCCOCCOCCNc1cccc2c1C(=O)N(C1CCC(=O)NC1=O)C2=O (centres unmarked) [Compound 1, dBRD9]",did not result in inhibition of the growth,reduced numbers of cells in the S-phase of the cell cycle,resulted in inhibition of the growth of the cells,most significant growth inhibition in all synovial cell lines,does not result in inhibition of the growth,results in inhibition of the growth of the cells,increased numbers of early- and late-apoptotic cells,
"COc1cc(-c2cn(C)c(=O)c3cnccc23)cc(OC)c1CN(C)C [Compound 2, BI-7273]",did not result in inhibition of the growth,,resulted in inhibition of the growth of the cells,,does not result in inhibition of the growth,results in inhibition of the growth of the cells,,
"COc1cc(C2=CN(C)C(=O)N(C)C2)cc(OC)c1CN1CCC(CCN2CCN(c3ccc4c(c3)C(=O)N(C3CCC(=O)NC3=O)C4)CC2)CC1 (centres unmarked) [Compound D1, 3-(6-[4-[2-(1-[[4-(1,3-dimethyl-2-oxo-4H-pyrimidin-5-yl)-2,6-dimethoxyphenyl]methyl]piperidin-4-yl)ethyl]piperazin-1-yl]-1-oxo-3H-isoindol-2-yl)piperidine-2,6-dione]",,,,,,,,< 10 nM
"COc1cc(C2=CN(C)C(=O)N(C)C2)cc(OC)c1CN1CCC(CCN2CCN(c3ccc4c(c3)CN(C3CCC(=O)NC3=O)C4=O)CC2)CC1 (centres unmarked) [Compound D2, 3-(5-[4-[2-(1-[[4-(1,3-dimethyl-2-oxo-4H-pyrimidin-5-yl)-2,6-dimethoxyphenyl]methyl]piperidin-4-yl)ethyl]piperazin-1-yl]-1-oxo-3H-isoindol-2-yl)piperidine-2,6-dione]",,,,,,,,< 10 nM
"COc1cc(C2=CN(C)C(=O)N(C)C2)cc(OC)c1CN1CCN(CCC2CCN(c3ccc4c(c3)CN(C3CCC(=O)NC3=O)C4=O)CC2)CC1 (centres unmarked) [Compound D3, 3-(5-[4-[2-(4-[[4-(1,3-dimethyl-2-oxo-4H-pyrimidin-5-yl)-2,6-dimethoxyphenyl]methyl]piperazin-1-yl)ethyl]piperidin-1-yl]-1-oxo-3H-isoindol-2-yl)piperidine-2,6-dione Formic Acid]",,,,,,,,< 10 nM
